Experimental data: the supplement of paper PMC10307832

What was measured:
Assay in all cases: relative viability (nuclei count vs DMSO), 5 days (fraction); higher = more cells survive
IDH-C35 + Dasatinib = compound: Cc1ccccc1C(C(=O)NC1CCCCC1)N(C(=O)Cn1ccnc1C)c1cccc(F)c1 [IDH-C35] + Cc1nc(Nc2ncc(C(=O)Nc3c(C)cccc3Cl)s2)cc(N2CCN(CCO)CC2)n1 [Dasatinib] (partner 0.075 µM)
Procedure, shortened: (§1)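 Relative viability is defined as nuclei in treated wells over nuclei in vehicle wells. Duplicate plates were run and medians reported. Lung cancer cell lines in 1536-well plates were dosed by pin tool one day after seeding, with one drug or with a fixed anchor-drug dose plus five library-drug doses (not always all listed) in √10 steps, and nuclei were counted after 5 days.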

[1] = compound: CC1=C(C(=NN1)C)CC2=C(C3=C(S2)N(C(=O)N(C3=O)C)CC(C)C)C(=O)N4C[C@@H](CO4)O + CC(C)C[C@H](NC(=O)[C@H](Cc1ccccc1)NC(=O)c1cnccn1)B(O)O [Bortezomib] (partner 0.002 µM)
Procedure, shortened: as §1

[2] = compound: CC1=C(C(=NN1)C)CC2=C(C3=C(S2)N(C(=O)N(C3=O)C)CC(C)C)C(=O)N4C[C@@H](CO4)O + Nc1ncn([C@H]2C[C@H](O)[C@@H](CO)O2)c(=O)n1 [Decitabine] (partner 2 µM)
Procedure, shortened: as §1

IDH-C35 + Luminespib = compound: Cc1ccccc1C(C(=O)NC1CCCCC1)N(C(=O)Cn1ccnc1C)c1cccc(F)c1 [IDH-C35] + CCNC(=O)c1noc(-c2cc(C(C)C)c(O)cc2O)c1-c1ccc(CN2CCOCC2)cc1 [Luminespib] (partner 0.01 µM)
Procedure, shortened: as §1

Cell Line	relative viability (IDH-C35 + Dasatinib; first compound 0.08 µM)	relative viability (IDH-C35 + Dasatinib; first compound 0.253 µM)	relative viability (IDH-C35 + Dasatinib; first compound 0.8 µM)	relative viability (IDH-C35 + Dasatinib; first compound 2.53 µM)	relative viability (IDH-C35 + Dasatinib; first compound 8 µM)	relative viability ([1]; first compound 0.0025 µM)	relative viability ([1]; first compound 0.007906 µM)	relative viability ([1]; first compound 0.025 µM)	relative viability ([1]; first compound 0.07906 µM)	relative viability ([1]; first compound 0.25 µM)	relative viability ([2]; first compound 0.0025 µM)	relative viability ([2]; first compound 0.007906 µM)	relative viability ([2]; first compound 0.025 µM)	relative viability ([2]; first compound 0.07906 µM)	relative viability ([2]; first compound 0.25 µM)	relative viability (IDH-C35 + Luminespib; first compound 0.08 µM)	relative viability (IDH-C35 + Luminespib; first compound 0.253 µM)	relative viability (IDH-C35 + Luminespib; first compound 0.8 µM)	relative viability (IDH-C35 + Luminespib; first compound 2.53 µM)	relative viability (IDH-C35 + Luminespib; first compound 8 µM)
201T	0.575	0.569	0.607	0.582	0.529	1.15	1.07	1.03	1.06	1.12	0.87	0.866	0.795	0.865	0.82	1.05	1.07	1.02	1.04	1.01
A549	–	–	–	–	–	–	–	–	–	–	0.237	0.284	0.252	0.232	0.343	–	–	–	–	–
A-427	0.738	0.636	0.685	0.702	0.658	0.945	1	1.03	0.975	0.944	0.592	0.576	0.623	0.605	0.604	0.914	0.892	0.785	0.87	0.852
ABC-1	0.583	0.58	0.485	0.476	0.631	0.342	0.304	0.304	0.394	0.335	0.988	0.899	–	0.889	0.779	0.598	–	0.688	0.805	0.818
BEN	0.308	0.373	0.289	0.333	0.293	0.772	0.74	0.532	0.675	0.665	0.626	0.708	0.613	0.622	0.614	0.373	0.391	0.311	0.425	0.333
CAL-12T	0.39	0.613	0.411	0.496	0.396	1.07	0.978	–	0.891	0.926	–	–	–	–	–	0.498	0.314	0.36	0.188	0.363
COR-L23	0.479	0.438	0.48	0.443	0.445	1.07	0.895	0.888	0.754	0.865	0.439	0.41	0.406	0.304	0.381	0.789	0.656	0.664	0.641	0.679
COR-L 105	0.394	0.394	0.403	0.323	0.349	0.841	0.763	0.882	0.73	0.802	0.574	0.632	0.653	0.644	0.615	0.722	0.951	0.715	0.819	0.742
Calu-6	–	–	–	–	–	1.05	1.05	0.904	1.12	1.09	–	–	–	–	–	–	–	–	–	–
ChaGo-K-1	0.64	0.615	0.598	0.63	0.601	0.906	0.859	–	1.11	1.35	0.506	0.509	0.508	0.536	0.553	0.733	0.625	0.623	0.697	0.67
EBC-1	–	–	–	–	–	0.602	0.553	0.588	0.639	0.648	–	–	–	–	–	–	–	–	–	–
EKVX	0.568	0.53	0.57	0.494	0.61	1.02	1.33	1.07	0.992	1.03	0.365	0.311	0.309	0.267	0.369	0.93	0.908	0.822	0.842	0.845
EMC-BAC-2	0.355	0.346	0.348	0.298	0.281	1.15	1.15	1.04	1.06	1.1	1.03	1.01	1.03	1.03	1.03	1.18	1.18	1.18	1.14	1.14
EPLC-272H	0.432	0.357	0.506	0.653	0.323	0.919	0.874	0.971	1.01	0.925	0.374	0.346	0.369	0.354	0.352	0.262	0.265	0.605	0.351	0.428
H3255	0.406	0.415	0.306	0.453	0.331	0.819	0.79	0.734	0.758	1.02	0.567	0.446	0.568	0.651	0.641	0.845	0.998	0.734	1.03	0.882
HARA	0.298	0.271	0.294	–	0.328	1.21	1.15	1	0.979	1.1	0.578	0.578	0.653	0.581	0.524	0.783	0.761	0.637	–	0.617
HCC-15	0.542	0.639	0.599	–	0.59	1	0.945	0.979	1.02	1.2	0.707	0.621	0.692	0.662	0.781	0.246	0.251	0.178	–	0.314
HCC-44	–	–	–	–	–	0.901	0.904	0.9	0.893	0.797	0.978	0.961	0.949	0.912	1.06	1.06	1.06	0.986	1.04	1.05
HCC-78	0.361	0.315	0.496	0.325	0.435	0.526	0.614	0.535	0.543	0.413	0.658	0.774	0.644	0.636	0.631	–	–	–	–	–
HCC-366	0.763	0.67	0.669	–	0.596	1.04	1.1	0.958	1.07	1.13	0.297	0.417	0.399	0.365	0.372	–	–	–	–	–
HCC-827	0.328	0.263	0.29	0.32	0.382	0.923	1.04	0.985	0.913	1.08	0.216	0.34	0.323	0.408	0.302	0.788	0.526	0.472	0.569	0.516

Cell Line	relative viability (IDH-C35 + Dasatinib; first compound 0.08 µM)	relative viability (IDH-C35 + Dasatinib; first compound 0.253 µM)	relative viability (IDH-C35 + Dasatinib; first compound 0.8 µM)	relative viability (IDH-C35 + Dasatinib; first compound 2.53 µM)	relative viability (IDH-C35 + Dasatinib; first compound 8 µM)	relative viability ([1]; first compound 0.0025 µM)	relative viability ([1]; first compound 0.007906 µM)	relative viability ([1]; first compound 0.025 µM)	relative viability ([1]; first compound 0.07906 µM)	relative viability ([1]; first compound 0.25 µM)	relative viability ([2]; first compound 0.0025 µM)	relative viability ([2]; first compound 0.007906 µM)	relative viability ([2]; first compound 0.025 µM)	relative viability ([2]; first compound 0.07906 µM)	relative viability ([2]; first compound 0.25 µM)	relative viability (IDH-C35 + Luminespib; first compound 0.08 µM)	relative viability (IDH-C35 + Luminespib; first compound 0.253 µM)	relative viability (IDH-C35 + Luminespib; first compound 0.8 µM)	relative viability (IDH-C35 + Luminespib; first compound 2.53 µM)	relative viability (IDH-C35 + Luminespib; first compound 8 µM)
HOP-62	0.712	0.624	0.6	0.638	0.622	0.535	1.03	0.753	0.557	1.07	0.197	0.218	0.268	0.165	0.279	0.944	0.849	0.822	0.923	0.927
IA-LM	–	–	–	–	–	0.923	0.652	0.815	1	0.883	–	–	–	–	–	–	–	–	–	–
LC-2-ad	0.596	0.65	0.568	–	0.593	1.06	1.05	1.15	0.999	1.14	0.776	0.8	0.877	0.8	0.871	1.05	1.04	0.962	–	0.939
LCLC-97TM1	0.87	0.796	0.822	0.818	0.809	0.657	0.484	0.347	0.637	0.949	0.265	0.237	0.219	0.242	0.224	0.842	0.734	0.682	0.738	0.604
LCLC-103H	0.485	0.441	0.45	0.423	0.514	1.11	1.08	1.15	1.04	1.05	0.753	0.746	0.766	0.644	0.701	0.93	0.999	0.95	0.959	0.859
LK-2	0.243	0.295	0.27	0.299	0.335	–	–	–	–	–	0.261	0.397	0.268	0.237	0.273	0.173	0.177	0.205	0.176	0.184
NCI-H358	0.205	0.159	0.141	0.193	0.169	–	–	–	–	–	0.198	0.237	0.208	0.204	0.217	0.526	0.388	0.283	0.26	0.242
NCI-H522	0.977	0.976	0.858	1.01	0.905	–	–	–	–	–	0.658	0.655	0.472	0.498	0.599	0.958	1	1.1	1.22	1
NCI-H1299	–	–	–	–	–	1.03	0.946	0.975	1.01	1.01	–	–	–	–	–	–	–	–	–	–
NCI-H1395	0.416	0.376	0.4	0.41	0.381	–	–	–	–	–	0.801	0.68	0.707	0.763	0.694	0.757	0.655	0.744	0.763	0.714
NCI-H1563	0.455	0.472	0.446	0.487	0.465	0.943	0.938	0.938	0.811	0.818	–	–	–	–	–	0.538	0.563	0.558	0.508	0.536
NCI-H1623	0.475	0.504	0.534	0.535	0.474	–	–	–	–	–	–	–	–	–	–	0.435	0.503	0.502	0.559	0.439
NCI-H1648	–	–	–	–	–	–	–	–	–	–	0.582	0.529	0.5	0.302	0.461	–	–	–	–	–
NCI-H1703	–	–	–	–	–	0.265	0.223	0.221	0.3	0.256	–	–	–	–	–	–	–	–	–	–
NCI-H1793	0.409	0.423	0.364	–	0.414	–	–	–	–	–	0.295	0.517	0.471	0.449	0.524	0.159	0.215	0.255	–	0.184
NCI-H1944	0.233	0.228	0.211	0.228	0.211	–	–	–	–	–	0.452	0.46	0.462	0.404	0.448	0.79	0.715	0.656	0.681	0.763
NCI-H2170	0.542	0.594	0.594	0.678	0.538	–	–	–	–	–	0.495	0.514	0.462	0.441	0.481	0.678	0.799	0.684	0.687	0.72
NCI-H2228	0.571	0.526	0.509	0.53	0.537	0.996	1.09	1.11	0.97	1.47	–	–	–	–	–	0.213	0.152	0.111	0.184	0.155
NCI-H2342	0.308	0.381	0.32	0.374	0.299	–	–	–	–	–	0.74	0.784	0.81	0.693	0.799	0.818	0.617	0.803	0.631	0.7
SK-MES-1	0.433	0.353	0.424	0.355	0.336	–	–	–	–	–	0.428	0.384	0.394	0.381	0.449	0.701	0.939	0.855	0.861	0.749
SW 900	0.534	0.764	0.478	0.578	0.552	–	–	–	–	–	0.449	0.405	0.547	0.469	0.412	0.175	0.178	0.181	0.179	0.162
